Assay results reported in ChEMBL document CHEMBL4364307, “2-(phenylthio)ethylidene derivatives as anti-Trypanosoma cruzi compounds: Structural design, synthesis and antiparasitic activity” (Eur J Med Chem, 2019).
The source made the active and inactive calls. The rule behind the calls is not given here.

Assays:
[1] = target: Cruzipain (Trypanosoma cruzi) (UniProt P25779); assay: Inhibition of Trypanosoma cruzi cruzain at 100 uM using Z-FR-AMC as substrate preincubated for 10 mins followed by substrate addition and measured for 5 mins by fluorimetric analysis relative to control
[2] = Selectivity index, ratio of maximum non-toxic concentration for Balb/c mouse splenocyte to IC50 for bloodstream form of Trypanosoma cruzi trypomastigotes; format: toxicity; conditions: mouse splenocytes, read-out: Selectivity Index
Trypanosoma cruzi [3] = assay: Antitrypanosomal activity against bloodstream form of Trypanosoma cruzi trypomastigotes after 24 hrs by Neubauer chamber method; format: functional, organism-based
[4] = Cytotoxicity against Balb/c mouse splenocyte assessed as reduction in cell viability after 24 hrs by [3H]thymidine incorporation based beta scintillation counting analysis; conditions: mouse splenocytes
Trypanosoma cruzi [5] = assay: Antitrypanosomal activity against Trypanosoma cruzi Dm28c epimastigotes after 5 days by Neubauer chamber method; format: functional, organism-based; conditions: 120 h
Trypanosoma cruzi [6] = assay: Induction of apoptosis in bloodstream form of Trypanosoma cruzi trypomastigotes at 0.25 mM after 24 hrs by annexin V-FITC/propidium iodide staining based flow cytometry relative to control; format: functional, organism-based
Trypanosoma cruzi [7] = assay: Induction of apoptosis in bloodstream form of Trypanosoma cruzi trypomastigotes at 1.1 mM after 24 hrs by annexin V-FITC/propidium iodide staining based flow cytometry relative to control; format: functional, organism-based
Trypanosoma cruzi [8] = assay: Induction of morphological changes in Trypanosoma cruzi bloodstream trypomastigotes assessed as appearance myelin figures in cytoplasm at 3 uM after 24 hrs by TEM analysis; format: functional, organism-based
Trypanosoma cruzi [9] = assay: (§1) Antiparasitic activity against bloodstream form of Trypanosoma cruzi Y strain trypomastigotes infected in Balb/c mouse peritoneal macrophage assessed as reduction in number of amastigotes/100 macrophages at 20 uM incubated for 6 hrs followed by replacement of fresh medium measured after 3 days by Giemsa-staining based optical microscopic analysis; format: functional, organism-based
Trypanosoma cruzi [10] = assay: Induction of morphological changes in Trypanosoma cruzi bloodstream trypomastigotes assessed as appearance of myelin figures in mitochondria at 3 uM after 24 hrs by TEM analysis; format: functional, organism-based
Trypanosoma cruzi [11] = assay: Induction of morphological changes in Trypanosoma cruzi bloodstream trypomastigotes assessed as disorganization of golgi complex at 3 uM after 24 hrs by TEM analysis; format: functional, organism-based
Trypanosoma cruzi [12] = assay: as §1, with “percent” for “number”, “infected” for “amastigotes/100”; format: functional, organism-based
Trypanosoma cruzi [13] = assay: Antiparasitic activity against bloodstream form of Trypanosoma cruzi Y strain trypomastigotes infected in Balb/c mouse peritoneal macrophage incubated for 6 hrs followed by replacement of fresh medium measured after 3 days by Giemsa-staining based optical microscopic analysis; format: functional, organism-based
Trypanosoma cruzi [14] = assay: Induction of morphological changes in Trypanosoma cruzi bloodstream trypomastigotes assessed as appearance of atypical vacuoles in cytoplasm at 3 uM after 24 hrs by TEM analysis; format: functional, organism-based
Trypanosoma cruzi [15] = assay: Antiparasitic activity against bloodstream form of Trypanosoma cruzi Y strain trypomastigotes infected in Balb/c mouse peritoneal macrophage at 20 uM incubated for 2 hrs followed by extracellular parasites wash out and measured after 2 hrs by Giemsa staining-based optical microscopic analysis
Trypanosoma cruzi [16] = assay: Antitrypanosomal activity against Trypanosoma cruzi Y strain epimastigotes after 15 hrs by hemocytometer based cell counting method; format: functional, organism-based
Cruzipain = Cruzipain (Trypanosoma cruzi, UniProt P25779); assay: Inhibition of Trypanosoma cruzi cruzain using Z-FR-AMC as substrate preincubated for 10 mins followed by substrate addition and measured for 5 mins by fluorimetric analysis
Sequence of Cruzipain (P25779 whole entry): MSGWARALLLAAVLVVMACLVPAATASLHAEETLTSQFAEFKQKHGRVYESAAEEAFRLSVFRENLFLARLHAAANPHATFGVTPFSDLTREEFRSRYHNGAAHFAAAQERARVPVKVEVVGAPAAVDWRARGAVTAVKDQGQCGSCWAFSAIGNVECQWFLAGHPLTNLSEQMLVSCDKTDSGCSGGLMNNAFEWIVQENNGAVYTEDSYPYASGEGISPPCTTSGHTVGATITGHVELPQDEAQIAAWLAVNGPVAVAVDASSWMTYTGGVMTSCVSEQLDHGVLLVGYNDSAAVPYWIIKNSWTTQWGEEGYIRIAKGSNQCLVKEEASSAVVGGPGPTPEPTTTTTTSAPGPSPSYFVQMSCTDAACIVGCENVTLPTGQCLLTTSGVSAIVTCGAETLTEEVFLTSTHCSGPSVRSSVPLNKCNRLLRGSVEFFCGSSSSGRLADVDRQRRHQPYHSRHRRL

Sequence of Cruzipain (Trypanosoma cruzi) (P25779 123-467 limits assumed): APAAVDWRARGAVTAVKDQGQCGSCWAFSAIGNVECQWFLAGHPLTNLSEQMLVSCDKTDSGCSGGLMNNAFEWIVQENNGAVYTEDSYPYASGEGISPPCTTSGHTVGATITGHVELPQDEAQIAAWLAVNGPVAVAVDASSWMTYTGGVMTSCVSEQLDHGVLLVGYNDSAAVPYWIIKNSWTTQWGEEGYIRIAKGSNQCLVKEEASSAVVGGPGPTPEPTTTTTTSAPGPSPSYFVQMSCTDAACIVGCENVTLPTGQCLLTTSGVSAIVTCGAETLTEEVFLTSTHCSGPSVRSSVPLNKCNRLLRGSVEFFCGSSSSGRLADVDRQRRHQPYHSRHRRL

| Structure (SMILES) | inhibition [1] | selectivity ratio [2] | IC50 (Trypanosoma cruzi [3]) | MNTC at 24 h [4] | IC50 (Trypanosoma cruzi [5]) | also measured |
| --- | --- | --- | --- | --- | --- | --- |
| Fc1ccc(-c2csc(N/N=C/CSc3ccccc3)n2)cc1 | 22.9% | > 7 | 41.7 µM | > 291 µM | – | – |
| C/C(COc1ccccc1)=N\Nc1nc(-c2ccc(Br)cc2)cs1 | – | – | – | – | 49.8 µM | – |
| C(/CSc1ccccc1)=N\Nc1nc(-c2ccccc2)cs1 | – | 29.5 | 5.2 µM | 154 µM | 59.4 µM | Activity (Trypanosoma cruzi [6]): Active; Activity (Trypanosoma cruzi [7]): Active |
| O=C(Cn1ccnc1[N+](=O)[O-])NCc1ccccc1 [BENZNIDAZOLE] | – | 15.5 | 6.2 µM | – | – | – |
| Brc1ccc(-c2csc(N/N=C/CSc3ccccc3)n2)cc1 | 7% | > 16.7 | 14.3 µM | > 239 µM | 5.4 µM | – |
| Cc1ccccc1SC/C=N/NC(N)=S | 13.9% | 6.9 | 6.1 µM | 41.8 µM | 15.3 µM | – |
| C/C(COc1ccccc1)=N\Nc1nc(-c2cccc([N+](=O)[O-])c2)cs1 | – | – | 3.8 µM | – | 4 µM | – |
| Cc1ccc(SC/C=N/NC(N)=S)cc1 | 31.4% | – | – | 4.2 µM | 9.6 µM | – |
| COc1ccc(-c2csc(N/N=C/CSc3ccccc3)n2)cc1 | – | > 15.2 | 18.5 µM | > 281 µM | 62.7 µM | – |
| Cc1sc(N/N=C/CSc2ccccc2)nc1-c1ccc(Br)cc1 | 27% | > 95.1 | 2.6 µM | > 247 µM | 4.1 µM | Activity (Trypanosoma cruzi [8]): Active; Activity (Trypanosoma cruzi [9]): Active; Activity (Trypanosoma cruzi [6]): Active; Activity (Trypanosoma cruzi [10]): Active; Activity (Trypanosoma cruzi [11]): Active; Activity (Trypanosoma cruzi [7]): Active; Activity (Trypanosoma cruzi [12]): Active; IC50 (Trypanosoma cruzi [13]): 10.2 µM; Activity (Trypanosoma cruzi [14]): Active; inhibition (Trypanosoma cruzi [15]): Active |
| Cc1cccc(SC/C=N/NC(N)=S)c1 | 43.4% | 2.3 | 1.8 µM | < 4.2 µM | 6.3 µM | Activity (Trypanosoma cruzi [6]): Active; Activity (Trypanosoma cruzi [7]): Active |
| NC(=S)N/N=C/CSc1ccc(F)cc1 | 27.5% | 3.6 | 5.7 µM | 20.5 µM | 6.1 µM | – |
| Clc1ccc(-c2csc(N/N=C/CSc3ccccc3)n2)cc1 | 17.6% | > 67.8 | 4.1 µM | > 278 µM | 6.8 µM | Activity (Trypanosoma cruzi [9]): Active; Activity (Trypanosoma cruzi [6]): Active; Activity (Trypanosoma cruzi [7]): Active; Activity (Trypanosoma cruzi [12]): Active; IC50 (Trypanosoma cruzi [13]): 7.88 µM; inhibition (Trypanosoma cruzi [15]): Active |
| C/C(COc1ccccc1)=N\Nc1nc(-c2ccncc2)cs1 | – | – | 3.9 µM | – | 4 µM | – |
| NC(=S)N/N=C/CSc1cc(Cl)ccc1Cl | 37.4% | 10.4 | 8.2 µM | 85 µM | 6.1 µM | – |
| Clc1ccc(-c2csc(N/N=C/CSc3ccccc3)n2)c(Cl)c1 | 67.2% | 30.9 | 4.1 µM | 127 µM | 7.9 µM | Activity (Trypanosoma cruzi [6]): Active; Activity (Trypanosoma cruzi [7]): Active |
| Cc1ccc(-c2csc(N/N=C/CSc3ccccc3)n2)cc1 | 11.9% | 25.8 | 5.7 µM | 147 µM | 9.4 µM | Activity (Trypanosoma cruzi [9]): Active; Activity (Trypanosoma cruzi [6]): Active; Activity (Trypanosoma cruzi [7]): Active; Activity (Trypanosoma cruzi [12]): Active; IC50 (Trypanosoma cruzi [13]): 18.8 µM |
| CC(C)C1S/C(=N/N=C/CSc2ccccc2)NC1=O (stereo not drawn) | – | – | – | – | – | IC50 (Trypanosoma cruzi [16]): 0.3 µM |
| O=[N+]([O-])c1cccc(-c2csc(N/N=C/CSc3ccccc3)n2)c1 | 16.2% | 7 | 19.2 µM | 135 µM | 8.4 µM | – |
| NC(=S)N/N=C/CSc1ccc(Br)cc1 | 16.6% | 0.5 | 6.6 µM | < 3.3 µM | 15.4 µM | Activity (Trypanosoma cruzi [6]): Active; Activity (Trypanosoma cruzi [7]): Active |
| NC(=S)N/N=C/CSc1ccccc1 | 42.1% | 0.25 | 89 µM | – | 102 µM | – |
| Clc1ccc(-c2csc(N/N=C/CSc3ccccc3)n2)cc1Cl | 62.9% | 8.3 | 15.2 µM | 127 µM | 56.5 µM | – |
| COc1ccc(SC/C=N/NC(N)=S)cc1 | 34.6% | 0.1 | 39.7 µM | < 3.9 µM | 32.1 µM | – |
| NC(=S)N/N=C/CSc1cccc(Cl)c1 | 75.9% | 6.8 | 14.1 µM | 96.2 µM | 5.5 µM | IC50 (Cruzipain): 19 µM |
| O=[N+]([O-])c1ccc(-c2csc(N/N=C/CSc3ccccc3)n2)cc1 | 18.9% | 8 | 8.4 µM | 67.5 µM | 16 µM | Activity (Trypanosoma cruzi [9]): Active; Activity (Trypanosoma cruzi [12]): Active; IC50 (Trypanosoma cruzi [13]): 19.3 µM |
| Cc1ccc(C)c(SC/C=N/NC(N)=S)c1 | 87.6% | 0.7 | 5.9 µM | < 3.9 µM | 6.2 µM | Activity (Trypanosoma cruzi [6]): Active; Activity (Trypanosoma cruzi [7]): Active; IC50 (Cruzipain): 3.3 µM |
| NC(=S)N/N=C/CSc1ccccc1Cl | 46% | 0.6 | 6.2 µM | < 3.8 µM | 47.7 µM | – |
| NC(=S)N/N=C/CSc1ccc(Cl)cc1 | 25.2% | 0.3 | 14.1 µM | < 3.8 µM | 6.2 µM | – |
